The record followed here is US7951359B2, “Compositions and methods for therapy or prevention of chemotherapy-induced neuropathy” (Merck Serono SA, priority 2004, dated 2011).

Test [1] relates to vincristine induced neuropathy. The test is described as follows: Hindpaw skin biopsy, density of dermal nerve fibers in vincristine-treated rats. Type of test: in vivo, rat. The following applies: IL-6 10 μg/kg.
Description: A 5-10 mm diameter area of skin was punch-biopsied from the hindpaw. Skin samples were immediately fixed overnight in paraformaldehyde at 4° C., incubated (overnight) in 30% sucrose in 0.1 M PBS for cryoprotection, embedded in OCT and frozen at −80° C. until cryocut. 50 μm-thick cryosections were then cut vertical to the skin surface with a cryostat. Free-floating sections were incubated for 7 days in a bath of rabbit anti-protein gene product 9.5 (1:10000; Ultraclone, Isle of Man, UK) at 4° C. The sections were then processed to reveal immunoreactivity according to the ABC peroxidase method. Briefly, they were incubated in for 1 hr with biotinylated anti-goat antibody (1:200), then 30 min in the avidin biotinylated complex at room temperature. Peroxidase activity was visualized using DAB system. Sections were then counterstained with eosin or hematoxylin. Sections were dehydrated, cleared with bioclear and mounted on eukitt. The number of dermal nerves of 3 microscope fields was counted manually under 40 magnification view.
Test [2] has as its system Hybridoma growth factor (HGF) activity. Put plainly: Hybridoma growth factor (HGF) activity of IL-6. It counts as cell-based. Particulars: based on Hybridoma growth factor (HGF) activity. The source says:
Recombinant human IL-6 (r-hlL-6) is produced in genetically engineered Chinese Hamster Ovary (CHO) cells. The production process begins with the growth and expansion of cells from a working cell bank (WCB) and continues under conditions where r-hlL-6 is secreted into the culture medium. The r-hlL-6 was harvested and purified from culture medium of the engineered cells.

Test [3] relates to vincristine induced neuropathy. The test is described as follows: Hot plate test in vincristine-treated rats. It counts as in vivo, rat. The procedure:
The rat was placed inside a glass cylinder of 17 cm height and 21 cm diameter on a heating-plate maintained at 52° C. (Medite OTS 40, Microm, Francheville, Rhône, France). The animal behavior was observed, particularly the licking of a foot and the adjusted leap. The latency before licking a foot or before jumping to escape the heat (adjusted leap) was recorded. The time needed to feel the thermal pain is related to the thermal sensitivity and tends to increase when thermal sensitivity is altered.

Test [4] deals with vincristine induced neuropathy. The test is described as follows: Walking test (motor coordination) in vincristine-treated rats. The following applies: IL-6 0.3, 1, 3, 10 μg/kg SC daily; 2 and 3 weeks. Type of test: in vivo, rat. The procedure: The motor coordination was assessed using walking test, which consists at measuring the time taken by a rat placed at one extremity of a 100 cm-long horizontal wooden rod of 5.5 cm diameter, 40 cm above the table, to cover a distance of 1 m on this rod. Three tests (maximum duration: 60 s each) were performed, and the mean value was calculated and retained as characteristic value. If the animal fell down, it was scored with a maximum of 60 s.

In test [5] the test system is vincristine induced neuropathy. The test is described as follows: Electromyography (EMG) in vincristine-treated rats. It counts as in vivo, rat. The procedure:
In parallel to behavioral tests, electrophysiological test as described in Example 17, were carried out to evaluate fiber/nerve function in vincristine-administered rats vis-à-vis rats co-administrated with IL-6.
Electrophysiological recordings were performed using a Neuromatic 2000M electromyograph (EMG) (Dantec, Les Ulis, France). Rats were anaesthetized by IP injection of 60 mg/kg ketamine chlorhydrate (Imalgene 500®, Rhône Merieux, Lyon, France). The normal body temperature was maintained around […] with a heating lamp and verified using a contact thermometer (Quick, Bioblock Scientific, Illkirch, France) placed on the tail surface.
Compound muscle action potential (CMAP) of M wave signal (or electrically evoked muscle potential) was recorded in the gastrocnemius muscle after stimulation of the sciatic nerve. M wave reflects the current developed during the action potential of muscle fibers. A reference electrode and an active needle were placed in the hind paw. A ground needle was inserted on the lower back of the rat. Sciatic nerve was stimulated with a single 0.2 ms pulse at supramaximal intensity. The […] of the motor wave was recorded and expressed in ms.
Sensitive nerve conduction velocity (SNCV) was also recorded. The tail skin electrodes were placed as follows: a reference needle inserted at the base of the tail and an anode needle placed 30 mm away from the reference needle toward the extremity of the tail. A ground needle electrode was inserted between the anode and reference needles. The caudal nerve was stimulated with a series of 20 pulses (for 0.2 ms) at an intensity of 12.8 mA. The velocity was expressed in m/s.
H-wave reflex was recorded in the hind footpad muscle after stimulation of the sciatic nerve. A reference electrode and a ground needle were placed on the lower back of the rat. The sciatic nerve was stimulated with a single 0.2 ms pulse at supramaximal intensity. The amplitude (mV) of H wave and the proportion of animal lacking H wave response were the parameters studied.

On to “IL-6: Recombinant human IL-6 produced in genetically engineered Chinese Hamster Ovary (CHO) cells”, for which the “dermal fiber loss by vincristine” value in test [1] was “fully prevented”. For the same substance, the potency in test [2] is 23.3×10^6 IU/ml. For the same substance, in test [3] (IL-6 0.3, 1, 3, 10 μg/kg SC daily, 5 weeks), the “prevention of vincristine-induced nociception loss (hot plate)” value is reported as “significantly prevented nociception”. The “protection from vincristine-induced nociception loss compared with 4-MC” value in test [3] (IL-6 0.3-10 μg/kg SC vs 4-MC 10 μg/kg IP) was “confers better protection that 4-MC”. In test [4], the “walking test, time to traverse the rod versus vincristine alone” value is “traversed the rod faster”. Besides, in test [5] (IL-6 10 μg/kg SC daily with vincristine), the CMAP latency time result is listed as “fully preserved their CMAP latency time”. Further, in test [5] (IL-6 0.3-10 μg/kg SC daily, p<0.05), the “vincristine-induced CMAP latency” value was “reduced”. Moreover, in test [5] (IL-6 1-10 μg/kg SC daily), the “SNCV in vincristine treated animals” value was “full restoration of SNCV”. For the same substance, the “H wave amplitude preservation” value in test [5] (IL-6 1-10 μg/kg SC daily with vincristine) is “fully preserved the H wave amplitude”. In addition, in test [5] (IL-6 3-10 μg/kg SC daily with vincristine), the “protection against loss of M wave amplitude, duration” value is on record as “stable throughout the experiment”. For the same substance, in test [5] (IL-6 all doses tested (0.3-10 μg/kg SC daily)), the “prevention of vincristine-induced loss of M wave amplitude” value is “prevent vincristine-induced loss of M wave amplitude”. Further, the “protection against vincristine-induced fiber/nerve function loss compared with 4-MC” value in test [5] (IL-6 vs 4-MC 10 μg/kg IP) is listed as “confers better protection that 4-MC”.
